The subject of one experiment is CypB-CsA. Kind of experiment: displacement of 3H-CsA from CypB-CsA (gel filtration of T cell homogenate). In kind it is binding, human. The following applies: Compound [10 μmol]; 3H-CsA (100 nmol). The protocol: (§1) To study the interaction with this supermolecule from CsA-CypB or CsA-CypB-calcineurin, the compounds of the general formula I according to the invention were incubated with cell homogenate of a human T cell line containing ^3 H-CsA (100 nmol). After gel filtration on Superose 12, the radioactivity of the eluted fractions was measured and compared with the untreated control. The corresponding displacement of ^3 H-CsA from the supermolecules CypB-CsA and CypB-CsA-calcineurin by the compounds of the general formula I according to the invention is shown in Table 2: […]

For a further experiment, the target named is human cyclophilin B (Homo sapiens, UniProt P23284). Kind of experiment: PPlase test (inhibition of peptidyl-prolyl cis/trans-isomerase activity). In kind it is biochemical. The following applies: Compound [10 μmol], human CypB. As for the experimental part:
The compounds of the formula (I) according to the invention are distinguished by binding to immunophilins and inhibit their isomerase activity. This prolyl isomerase activity is assayed by an enzyme test conventionally used throughout the world: G. Fischer, H. Bang, A. Schellenberger, Biochim. Biophys. Acta, 791, 87-97, 1984; D. H. Rich et al., J. Med. Chem. 38, 4164-4170, 1995.
[…] This PPlase activity is assayed by an enzyme test conventionally used throughout the world: G. Fischer, H. Bang, C. Mech, Biomed. Biochim. Acta, 43, 1101-1111; G. Fischer, R. Bang, A. Schellenberger, Biochim. Biophys. Acta, 791, 87-97, 1984; D. H. Rich et al., J. Med. Chem. 38, 4164-4170, 1995.
The compounds of the general formula I according to the invention are preincubated together with 10 nmol of CypB for 15 min at 4° C. The enzyme reaction is started after the addition of chymotrypsin and HEPES buffer with the test peptide Suc-Ala-Ala-Pro-Phe-Nan. The change in extinction at 390 nm is then monitored and evaluated. The change in extinction determined by photometry results from two partial reactions: a) the rapid chymotryptic cleavage of the trans-peptide; and b) the […] cis/trans isomerization catalysed by cyclophilins.

For another experiment, the system named is CypB-CsA-calcineurin. The experiment is described as follows: displacement of 3H-CsA from CypB-CsA-calcineurin (gel filtration of T cell homogenate). Type of experiment: binding, human. The following applies: Compound [10 μmol]; 3H-CsA (100 nmol). As for the experimental part:
as §1
For orientation: Displacement assays read how much labelled ligand stays bound in the presence of the test substance.

Experiment [1] deals with T cells stimulated with OKT-3. Kind of experiment: IL-2 proliferation test (3H-thymidine incorporation into T cells stimulated with OKT-3). In kind it is cell-based. The note with it: Homo sapiens, T-cell; Compound [10 μmol]; 45 h incubation, OKT-3 1 μg/ml; read-out: CD3-induced inhibition of proliferation in [%]. As for the experimental part:
The IL-2 proliferation test is based on the incorporation of ^3 H-thymidine into T cells stimulated with OKT-3 (human anti-CD3 antibodies) and is performed as follows:
100,000 T cells are inoculated into 150 μl of culture medium per well in microtitre plates, stimulated by the addition of OKT-3 (1 μg/ml) and incubated for 45 h with each of the compounds of the general formula I according to the invention. After this incubation period, 10 μl of the ^3 H-thymidine solution (0.5 μCi) are pipetted into each well. Incubation is then carried out for 6 h at 37° C. in a 5% CO2 atmosphere. After the cells have been harvested, the radioactivity is quantified in a β-counter. The corresponding CD3-induced inhibition of proliferation by the compounds of the general formula I according to the invention is shown in Table 3: […]
For orientation: Uptake of a labelled nucleoside into DNA is a usual measure of proliferation.

Experiment [2] has as its system IL-2 gene transcription in T cells. The following applies: cited from earlier work.
Experiment [3] has as its system cytokines, like IL-2, IL-4 and IL-5. The following applies: animal experiments; reference substances; cited from earlier work.
The test system of a further experiment is FKBP. The following applies: cited from earlier work.

“Also recorded” adds a separate entry of the source.

human cyclophilin B, sequence (P23284 34-216): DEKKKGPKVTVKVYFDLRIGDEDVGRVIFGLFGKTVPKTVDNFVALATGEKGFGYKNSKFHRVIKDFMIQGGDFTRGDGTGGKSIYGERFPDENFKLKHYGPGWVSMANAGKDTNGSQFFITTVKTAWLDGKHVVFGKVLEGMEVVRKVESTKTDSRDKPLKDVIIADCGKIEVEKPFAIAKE

Take `COC(=O)C1Cc2ccccc2N1C(=O)C1CCN(C(=O)Cc2ccc(OC)cc2)CC1` (racemic) [Example 8, N-[N'-(4-methoxyphenylacetyl)piperidyl-4-carbonyl]indoline-2-(R,S)-carboxylic acid methyl ester]: the “Displacement from CypB-CsA in [%]” value with CypB-CsA came to 0%. This molecule showed an inhibition at 10 µM against human cyclophilin B of 0 to 20%. For the same molecule, the “Displacement from CypB-CsA-CN in [%]” value in the experiment on CypB-CsA-calcineurin worked out at 8%.

`COC(=O)C1Cc2ccccc2N1C(=O)Cc1ccc(OC)cc1` (racemic) [Example 9, N-(4-methoxyphenylacetyl)indoline-2-(R,S)-carboxylic acid methyl ester]: the “Displacement from CypB-CsA in [%]” value in the experiment with CypB-CsA is listed as 39%. The inhibition at 10 µM against human cyclophilin B fell in the range of 0 to 20%. The “Displacement from CypB-CsA-CN in [%]” value with CypB-CsA-calcineurin was found to be 37%.

`CC(C)(C)OC(=O)N1c2ccccc2CC1C(=O)Nc1ccncc1` (racemic) [Example 10]: the “Displacement from CypB-CsA in [%]” value with CypB-CsA is on record as -58%. This molecule also had an inhibition at 10 µM against human cyclophilin B of 0 to 20%. The inhibition in experiment [1] stood at 6%. The “Displacement from CypB-CsA-CN in [%]” value in the experiment with CypB-CsA-calcineurin worked out at 0%.

As to `CC(C)(C)OC(=O)N1c2ccccc2CC1C(=O)N1CCN(CC(=O)N2CCOCC2)CC1` (racemic) [Example 11, N-Boc-indoline-2-(R,S)-carboxylic acid (piperazinoacetic acid morpholide)amide], the “Displacement from CypB-CsA in [%]” value with CypB-CsA was -28%. The inhibition at 10 µM on human cyclophilin B lay in the range of 0 to 20%. Besides, the inhibition in experiment [1] was determined as 9%. Moreover, in the experiment on CypB-CsA-calcineurin, the “Displacement from CypB-CsA-CN in [%]” value was 0%.

`CC(C)(C)OC(=O)N1CCC(C(=O)N2c3ccccc3CC2C(=O)N2CCN(CC(=O)N3CCOCC3)CC2)CC1` (racemic) [Example 12, N-[1-Boc-piperidyl-4-carbonyl]indoline-2-(R,S)-carboxylic acid (piperazinoacetic acid morpholide)amide]: the “Displacement from CypB-CsA in [%]” value in the experiment on CypB-CsA stood at 8%. The molecule also showed an inhibition at 10 µM at human cyclophilin B of 0 to 20%. Moreover, the inhibition in experiment [1] worked out at 5%. In the experiment with CypB-CsA-calcineurin, the “Displacement from CypB-CsA-CN in [%]” value was -25%.

With `COC(=O)[C@H](CCCCNC(=O)OC(C)(C)C)NC(=O)C1Cc2ccccc2N1C(=O)C1CCN(C(=O)OC(C)(C)C)CC1` (stereo partly drawn) [Example 1, N-[1-Boc-piperidyl-4-carbonyl]indoline-2-(R,S)-carboxylic acid [S-(N-ε-Boc)lysinemethyl ester]amide], the “Displacement from CypB-CsA in [%]” value in the experiment with CypB-CsA is 10%. The molecule further had an inhibition at 10 µM at human cyclophilin B of 0 to 20%. The inhibition in experiment [1] was determined as 86%. In the experiment with CypB-CsA-calcineurin, the “Displacement from CypB-CsA-CN in [%]” value amounted to 45%.

As for `COC(=O)[C@H](CCCCN)NC(=O)C1Cc2ccccc2N1C(=O)C1CCNCC1` (stereo partly drawn) [Example 2, N-[piperidyl-4-carbonyl]indoline-2-(R,S)-carboxylic acid [S-(ε-NH2)lysinemethyl ester]amide], in the experiment on CypB-CsA, the “Displacement from CypB-CsA in [%]” value came to 45%. This molecule also displayed an inhibition at 10 µM at human cyclophilin B of 0 to 20%. Further, the inhibition in experiment [1] is 40%. Further, in the experiment with CypB-CsA-calcineurin, the “Displacement from CypB-CsA-CN in [%]” value is listed as -53%.

Take `COC(=O)[C@H](CCCCNC(=O)OC(C)(C)C)NC(=O)C1Cc2ccccc2N1C(=O)C1Cc2ccccc2N1C(=O)OC(C)(C)C` (stereo partly drawn) [Example 3, N-[1-Boc-indoline-2-(R,S)-carbonyl]indoline-2-(R,S)-carboxylic acid [S-(N-ε-Boc)lysinemethyl ester]amide]: the “Displacement from CypB-CsA in [%]” value with CypB-CsA came to 14%. The molecule further returned an inhibition at 10 µM at human cyclophilin B of 0 to 20%. Besides, the inhibition in experiment [1] turned out to be 82%. Besides, the “Displacement from CypB-CsA-CN in [%]” value in the experiment with CypB-CsA-calcineurin was 22%.

As for `COC(=O)[C@H](CCCCN)NC(=O)C1Cc2ccccc2N1C(=O)C1Cc2ccccc2N1` (stereo partly drawn) [Example 4, N-[indoline-2-(R,S)-carbonyl]indoline-2-(R,S)-carboxylic acid [S-(ε-NH2)lysinemethyl ester]amide], the “Displacement from CypB-CsA in [%]” value with CypB-CsA is recorded as 33%. The same molecule registered an inhibition at 10 µM against human cyclophilin B of 0 to 20%. Besides, the inhibition in experiment [1] is 38%. Also, in the experiment on CypB-CsA-calcineurin, the “Displacement from CypB-CsA-CN in [%]” value is on record as -42%.

Consider `COC(=O)[C@H](CCCCNC(=O)OCc1ccccc1)NC(=O)C1Cc2ccccc2N1C(=O)C1Cc2ccccc2N1C(=O)OC(C)(C)C` (stereo partly drawn) [Example 5, N-[1-Boc-indoline-2-(R,S)-carbonyl]indoline-2-(R,S)-carboxylic acid [S-(N-ε-Z)lysinemethyl ester]amide], for which the “Displacement from CypB-CsA in [%]” value in the experiment on CypB-CsA was found to be 16%. Also, on human cyclophilin B, the inhibition at 10 µM is 0 to 20%. In addition, the inhibition in experiment [1] worked out at 92%. Also, the “Displacement from CypB-CsA-CN in [%]” value with CypB-CsA-calcineurin came to 20%.

Take `COC(=O)[C@H](CCCCNC(=O)OCc1ccccc1)NC(=O)C1Cc2ccccc2N1C(=O)OC(C)(C)C` (stereo partly drawn) [Example 6, 1-Boc-indoline-2-(R,S)-carboxylic acid [S-(N-ε-Z)lysinemethyl ester]amide]: in the experiment on CypB-CsA, the “Displacement from CypB-CsA in [%]” value was found to be 0%. The same molecule returned an inhibition at 10 µM against human cyclophilin B of 20 to 40%. The inhibition in experiment [1] worked out at 84%. In addition, in the experiment with CypB-CsA-calcineurin, the “Displacement from CypB-CsA-CN in [%]” value stood at 7%.

In the case of `COC(=O)[C@H](Cc1ccccc1)NC(=O)C1Cc2ccccc2N1C(=O)OC(C)(C)C` (stereo partly drawn) [Example 7, 1-Boc-indoline-2-(R,S)-carboxylic acid (S-phenylalanine methyl ester)amide], in the experiment on CypB-CsA, the “Displacement from CypB-CsA in [%]” value was found to be 38%. The inhibition at 10 µM against human cyclophilin B was 0 to 20%. The inhibition in experiment [1] was 7%. In addition, in the experiment on CypB-CsA-calcineurin, the “Displacement from CypB-CsA-CN in [%]” value was determined as 0%.

With `COC(=O)[C@H](CCCCNC(=O)OCc1ccccc1)NC(=O)C1Cc2ccccc2N1C(=O)C1CCN(C(=O)Cc2ccc(OC)cc2)CC1` (stereo partly drawn) [Example 13, N-[N'-(4-methoxyphenylacetyl)piperidyl-4-carbonyl]indoline-2-(R,S)-carboxylic acid [S-(N-ε-Z)lysinemethyl ester]amide], the “Displacement from CypB-CsA in [%]” value in the experiment on CypB-CsA turned out to be 46%. Also, the inhibition at 10 µM at human cyclophilin B is 0 to 20%. In addition, in experiment [1], the inhibition stood at 66%. In the experiment on CypB-CsA-calcineurin, the “Displacement from CypB-CsA-CN in [%]” value is given as -16%.

For the molecule `C=CC[C@@H]1/C=C(\C)C[C@H](C)C[C@H](OC)[C@H]2O[C@@](O)(C(=O)C(=O)N3CCCC[C@H]3C(=O)O[C@H](/C(C)=C/[C@@H]3CC[C@@H](O)[C@H](OC)C3)[C@H](C)[C@@H](O)CC1=O)[C@H](C)C[C@@H]2OC` [FK 506], the “inhibition of gene transcription including the IL-2 gene” value in experiment [2] was “inhibit the transcription of a number of genes, including the IL-2 gene”. Besides, the “blocking of cytokines, like IL-2, IL-4 and IL-5” value in experiment [3] was “blocking of various cytokines, like IL-2, IL-4 and IL-5; also recorded: exhibit the blocking of cytokines, like IL-2, IL-4 and IL-5”. Besides, in the experiment with FKBP, the “binding affinity to receptor protein FKBP” value was “bind with high affinity”.

`CO[C@H]1C[C@@H]2CC[C@@H](C)[C@@](O)(O2)C(=O)C(=O)N2CCCC[C@H]2C(=O)O[C@H]([C@H](C)C[C@@H]2CC[C@@H](O)[C@H](OC)C2)CC(=O)[C@H](C)/C=C(\C)[C@@H](O)[C@@H](OC)C(=O)[C@H](C)C[C@H](C)/C=C/C=C/C=C/1C` [rapamycin]: in experiment [3], the “blocking of cytokines, like IL-2, IL-4 and IL-5” value was “exhibit the blocking of cytokines, like IL-2, IL-4 and IL-5”.
